For the assay, the system named is BDF1 mice, M5076 sarcoma s.c., survival/tumor T/C. Nature of the assay: NCI In Vivo Anticancer Drug Screen. Data for tumor model Sarcoma M5076 (subcutaneous) in B6D2F1 (BDF1) mice. How it is done: The antitumor activity of compounds was measured in mice bearing transplantable tumors. Survival or tumor size were measured and the results are expressed as the measurement made in the treated group (T) divided by the measurement made in the vehicle treated control group (C). The tumor model used in this assay is Sarcoma M5076 (subcutaneous) in B6D2F1 (BDF1) mice

Where [1] appears, read: endpoint: median survival time, dose: 50.0 mg/kg/injection, schedule: Q01DX009 (ip), vehicle: saline with Tween-80, higher = longer survival.
Where [2] appears, read: endpoint: median survival time, dose: 100.0 mg/kg/injection, schedule: Q01DX009 (ip), vehicle: saline with Tween-80, higher = longer survival.
The mark [3] stands for this setting: endpoint: median survival time, dose: 200.0 mg/kg/injection, schedule: Q01DX009 (ip), vehicle: saline with Tween-80, higher = longer survival.

Where “and” joins values, the source holds several entries; their conditions need not be identical. Identical values can stand only once. Inconclusive results are not listed.

Take `CN(C)CCCNc1c2ccccc2nc2cccc([N+](=O)[O-])c12`: the T/C reads like this: (endpoint: mean tumor weight, dose: 2.0 micrograms/kg/injection, schedule: Q02DX011 (ip), vehicle: saline, higher = larger tumour) 106 % of control; (endpoint: mean tumor weight, dose: 4.0 micrograms/kg/injection, schedule: Q02DX011 (ip), vehicle: saline, higher = larger tumour) 70 % of control; (endpoint: mean tumor weight, dose: 8.0 micrograms/kg/injection, schedule: Q02DX011 (ip), vehicle: saline, higher = larger tumour) 97 % of control; (endpoint: mean tumor weight, dose: 16.0 micrograms/kg/injection, schedule: Q02DX011 (ip), vehicle: saline, higher = larger tumour) 92 % of control; (endpoint: mean tumor weight, dose: 32.0 micrograms/kg/injection, schedule: Q02DX011 (ip), vehicle: saline, higher = larger tumour) 88 % of control; (endpoint: mean tumor weight, dose: 64.0 micrograms/kg/injection, schedule: Q02DX011 (ip), vehicle: saline, higher = larger tumour) 65 % of control. Also, the T/C runs as follows: (endpoint: median tumor weight (est.), dose: 2.0 micrograms/kg/injection, schedule: Q02DX011 (ip), vehicle: saline, higher = larger tumour) 112 % of control; (endpoint: median tumor weight (est.), dose: 4.0 micrograms/kg/injection, schedule: Q02DX011 (ip), vehicle: saline, higher = larger tumour) 90 % of control; (endpoint: median tumor weight (est.), dose: 8.0 micrograms/kg/injection, schedule: Q02DX011 (ip), vehicle: saline, higher = larger tumour) 95 % of control; (endpoint: median tumor weight (est.), dose: 32.0 micrograms/kg/injection, schedule: Q02DX011 (ip), vehicle: saline, higher = larger tumour) 100 % of control; (endpoint: median tumor weight (est.), dose: 64.0 micrograms/kg/injection, schedule: Q02DX011 (ip), vehicle: saline, higher = larger tumour) 62 % of control.

Consider `O=C1Nc2cnc(Cl)nc2Nc2ccccc21`, for which the T/C is, setting by setting: under setting [1], 97 % of control; under setting [2], 94 % of control; under setting [3], 95 % of control; (endpoint: median tumor weight (est.), dose: 50.0 mg/kg/injection, schedule: Q01DX009 (ip), vehicle: saline with Tween-80, higher = larger tumour) 90 % of control; (endpoint: median tumor weight (est.), dose: 100.0 mg/kg/injection, schedule: Q01DX009 (ip), vehicle: saline with Tween-80, higher = larger tumour) 75 % of control; (endpoint: median tumor weight (est.), dose: 200.0 mg/kg/injection, schedule: Q01DX009 (ip), vehicle: saline with Tween-80, higher = larger tumour) 86 % of control.

Regarding `COc1cc(C(C)(C)C)cc(OC)c1C(O)(c1c(OC)cc(C(C)(C)C)cc1OC)c1c(OC)cc(C(C)(C)C)cc1OC`, the T/C is 95 % of control (endpoint: median survival time, dose: 50.0 mg/kg/injection, schedule: Q04DX003 (ip), vehicle: saline with Tween-80, higher = longer survival) and 102 % of control (endpoint: median survival time, dose: 100.0 mg/kg/injection, schedule: Q04DX003 (ip), vehicle: saline with Tween-80, higher = longer survival).

In the case of `O=C[C@@H](CO)O[C@H](C=O)n1cnc2c(=O)[nH]cnc21`, the T/C (endpoint: mean tumor weight, dose: 75.0 mg/kg/injection, schedule: Q02DX011 (ip), vehicle: saline, higher = larger tumour) was 93 % of control; the T/C (endpoint: mean tumor weight, dose: 150.0 mg/kg/injection, schedule: Q02DX011 (ip), vehicle: saline, higher = larger tumour) is 105 % of control; the T/C (endpoint: mean tumor weight, dose: 300.0 mg/kg/injection, schedule: Q02DX011 (ip), vehicle: saline, higher = larger tumour) was 54 % of control; the T/C (endpoint: median tumor weight (est.), dose: 75.0 mg/kg/injection, schedule: Q02DX011 (ip), vehicle: saline, higher = larger tumour) is 376 % of control; the T/C (endpoint: median tumor weight (est.), dose: 150.0 mg/kg/injection, schedule: Q02DX011 (ip), vehicle: saline, higher = larger tumour) was 385 % of control; the T/C (endpoint: median tumor weight (est.), dose: 300.0 mg/kg/injection, schedule: Q02DX011 (ip), vehicle: saline, higher = larger tumour) was 266 % of control.

For `CC(=O)O[C@]1(C(C)=O)CC[C@H]2[C@@H]3C[C@H](C)C4=CC(=O)CC[C@]4(C)[C@H]3CC[C@@]21C`, the T/C is, setting by setting: (endpoint: mean tumor weight, dose: 100.0 mg/kg/injection, schedule: Q02DX011 (ip), vehicle: Klucel (hydroxypropylcellulose) (HPC), higher = larger tumour) 44 % of control; (endpoint: mean tumor weight, dose: 200.0 mg/kg/injection, schedule: Q02DX011 (ip), vehicle: Klucel (hydroxypropylcellulose) (HPC), higher = larger tumour) 122 % of control; (endpoint: mean tumor weight, dose: 400.0 mg/kg/injection, schedule: Q02DX011 (ip), vehicle: Klucel (hydroxypropylcellulose) (HPC), higher = larger tumour) 74 % of control; (endpoint: median tumor weight (est.), dose: 100.0 mg/kg/injection, schedule: Q02DX011 (ip), vehicle: Klucel (hydroxypropylcellulose) (HPC), higher = larger tumour) 49 % of control; (endpoint: median tumor weight (est.), dose: 200.0 mg/kg/injection, schedule: Q02DX011 (ip), vehicle: Klucel (hydroxypropylcellulose) (HPC), higher = larger tumour) 86 % of control; (endpoint: median tumor weight (est.), dose: 400.0 mg/kg/injection, schedule: Q02DX011 (ip), vehicle: Klucel (hydroxypropylcellulose) (HPC), higher = larger tumour) 59 % of control.

As for `O=NN(CCCl)C(=O)NCCCl`, the T/C (endpoint: median survival time, dose: 1.35 mg/kg/injection, schedule: Q04DX009 (ip), vehicle: saline with Tween-80, higher = longer survival) was 108 % of control; the T/C (endpoint: median survival time, dose: 2.7 mg/kg/injection, schedule: Q02DX033 (ip), vehicle: saline, higher = longer survival) is 233 % of control; the T/C (endpoint: median survival time, dose: 2.7 mg/kg/injection, schedule: Q04DX009 (ip), vehicle: saline with Tween-80, higher = longer survival) is 121 % of control; the T/C (endpoint: median survival time, dose: 5.4 mg/kg/injection, schedule: Q02DX033 (ip), vehicle: saline, higher = longer survival) was 171 % of control; the T/C (endpoint: median survival time, dose: 5.4 mg/kg/injection, schedule: Q04DX009 (ip), vehicle: saline with Tween-80, higher = longer survival) is 254 % of control; the T/C (endpoint: median survival time, dose: 6.0 mg/kg/injection, schedule: Q01DX009 (ip), vehicle: saline + alcohol, higher = longer survival) is 159 % of control. Moreover, the T/C is, setting by setting: (endpoint: median survival time, dose: 10.8 mg/kg/injection, schedule: Q04DX009 (ip), vehicle: saline with Tween-80, higher = longer survival) 238 % of control; (endpoint: median tumor weight (est.), dose: 1.5 mg/kg/injection, schedule: Q01DX009 (ip), vehicle: saline + alcohol, higher = larger tumour) 25 % of control.

Take `COc1ccc(/C=N/OC(=S)NC2CCCCC2)cc1OC`: the T/C is, setting by setting: under setting [1], 102 % of control; under setting [2], 86 % of control; under setting [3], 92 % of control.

Regarding `C[CH2][Ge]1([CH2]C)[CH2]CC2(CCN(CCCN(C)C)C2)C[CH2]1`, the T/C (endpoint: mean tumor weight, dose: 12.5 mg/kg/injection, schedule: Q02DX011 (ip), vehicle: saline, higher = larger tumour) was 110 % of control; the T/C (endpoint: mean tumor weight, dose: 25.0 mg/kg/injection, schedule: Q02DX011 (ip), vehicle: saline, higher = larger tumour) is 79 % of control and 91 % of control; the T/C (endpoint: mean tumor weight, dose: 50.0 mg/kg/injection, schedule: Q02DX011 (ip), vehicle: saline, higher = larger tumour) was 107 % of control and 82 % of control; the T/C (endpoint: median tumor weight (est.), dose: 12.5 mg/kg/injection, schedule: Q02DX011 (ip), vehicle: saline, higher = larger tumour) was 94 % of control; the T/C (endpoint: median tumor weight (est.), dose: 25.0 mg/kg/injection, schedule: Q02DX011 (ip), vehicle: saline, higher = larger tumour) is 74 % of control; the T/C (endpoint: median tumor weight (est.), dose: 50.0 mg/kg/injection, schedule: Q02DX011 (ip), vehicle: saline, higher = larger tumour) was 74 % of control.

Regarding `COC(=O)[C@@]12OC[C@]34[C@H]([C@@H](O)[C@@H]1O)[C@@]1(C)CC(=O)C(O)=C(C)[C@@H]1C[C@H]3OC(=O)[C@H](OC(=O)/C=C(\C)C(C)C)[C@@H]24`, the T/C is 114 % of control (endpoint: mean tumor weight, dose: 0.5 mg/kg/injection, schedule: Q02DX011 (ip), vehicle: saline with Tween-80, higher = larger tumour); 94 % of control (endpoint: mean tumor weight, dose: 1.0 mg/kg/injection, schedule: Q02DX011 (ip), vehicle: saline with Tween-80, higher = larger tumour); 26 % of control (endpoint: mean tumor weight, dose: 2.0 mg/kg/injection, schedule: Q02DX011 (ip), vehicle: saline with Tween-80, higher = larger tumour).

`Cc1ccc(S(=O)(=O)N/N=C/C(Br)=C(/Br)C(=O)O)cc1`: the T/C by setting is: (endpoint: median survival time, dose: 0.62 mg/kg/injection, schedule: Q04DX003 (ip), vehicle: saline, higher = longer survival) 99 % of control; (endpoint: median survival time, dose: 1.25 mg/kg/injection, schedule: Q04DX003 (ip), vehicle: saline, higher = longer survival) 101 % of control; (endpoint: median survival time, dose: 2.5 mg/kg/injection, schedule: Q04DX003 (ip), vehicle: saline, higher = longer survival) 99 % of control and 96 % of control; (endpoint: median survival time, dose: 5.0 mg/kg/injection, schedule: Q04DX003 (ip), vehicle: saline, higher = longer survival) 109 % of control and 92 % of control; (endpoint: median survival time, dose: 7.5 mg/kg/injection, schedule: Q04DX003 (ip), vehicle: saline, higher = longer survival) 83 % of control; (endpoint: median survival time, dose: 11.3 mg/kg/injection, schedule: Q04DX003 (ip), vehicle: saline, higher = longer survival) 88 % of control.

These data come from PubChem BioAssay AID288 (DTP/NCI, 2004).
